According to ChEMBL document CHEMBL2406945, “Integrated Synthesis and Testing of Substituted Xanthine Based DPP4 Inhibitors: Application to Drug Discovery” (ACS Med Chem Lett, 2013):
pIC50: −log10 of the molar value. Blank lines part the entries; values can stand above or below the compound they belong to.

Assays:
[1] = biological target: Dipeptidyl peptidase 4 (Sus scrofa) (UniProt P22411); test: Inhibition of porcine DPP4 assessed as residual enzyme activity using H-Gly-Pro-AMC as substrate by fluorescence assay
Chain of Dipeptidyl peptidase 4 (Sus scrofa) (P22411 whole entry, looked up): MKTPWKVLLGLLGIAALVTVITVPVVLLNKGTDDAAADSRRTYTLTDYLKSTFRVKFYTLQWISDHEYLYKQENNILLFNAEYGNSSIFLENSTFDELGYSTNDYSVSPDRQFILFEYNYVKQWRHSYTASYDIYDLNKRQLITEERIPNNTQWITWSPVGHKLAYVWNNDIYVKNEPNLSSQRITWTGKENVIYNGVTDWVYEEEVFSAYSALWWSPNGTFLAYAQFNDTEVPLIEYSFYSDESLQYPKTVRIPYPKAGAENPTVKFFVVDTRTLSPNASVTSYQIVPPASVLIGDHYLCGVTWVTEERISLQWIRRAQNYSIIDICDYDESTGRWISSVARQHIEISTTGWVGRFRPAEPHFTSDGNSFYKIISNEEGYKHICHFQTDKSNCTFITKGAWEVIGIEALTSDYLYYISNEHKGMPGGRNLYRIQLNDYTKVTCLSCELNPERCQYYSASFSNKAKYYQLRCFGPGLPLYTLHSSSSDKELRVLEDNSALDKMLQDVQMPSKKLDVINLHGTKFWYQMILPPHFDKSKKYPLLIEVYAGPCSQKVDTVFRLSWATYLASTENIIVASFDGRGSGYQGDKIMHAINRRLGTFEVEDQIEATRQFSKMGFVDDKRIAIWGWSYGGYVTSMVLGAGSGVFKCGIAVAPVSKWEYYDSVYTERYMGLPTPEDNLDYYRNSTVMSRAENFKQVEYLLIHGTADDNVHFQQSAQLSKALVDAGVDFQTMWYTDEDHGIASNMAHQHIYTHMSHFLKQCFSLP

Dipeptidyl peptidase 4 [2] = biological target: T1, Dipeptidyl peptidase 4 (Sus scrofa, UniProt P22411); test: Inhibition of porcine DPP4 using H-Gly-Pro-AMC as substrate by fluorescence assay
T1 sequence (P22411 whole entry): as the sequence (P22411 whole entry, looked up) above

Dipeptidyl peptidase 4 [3] = biological target: T1, Dipeptidyl peptidase 4; test: Inhibition of porcine DPP4
Dipeptidyl peptidase 4 [4] = biological target: Dipeptidyl peptidase 4 (Homo sapiens, UniProt P27487); test: Inhibition of human DPP4 using H-Gly-Pro-AMC as substrate by fluorescence assay
Chain of Dipeptidyl peptidase 4 (Homo sapiens, UniProt P27487) (P27487 whole entry): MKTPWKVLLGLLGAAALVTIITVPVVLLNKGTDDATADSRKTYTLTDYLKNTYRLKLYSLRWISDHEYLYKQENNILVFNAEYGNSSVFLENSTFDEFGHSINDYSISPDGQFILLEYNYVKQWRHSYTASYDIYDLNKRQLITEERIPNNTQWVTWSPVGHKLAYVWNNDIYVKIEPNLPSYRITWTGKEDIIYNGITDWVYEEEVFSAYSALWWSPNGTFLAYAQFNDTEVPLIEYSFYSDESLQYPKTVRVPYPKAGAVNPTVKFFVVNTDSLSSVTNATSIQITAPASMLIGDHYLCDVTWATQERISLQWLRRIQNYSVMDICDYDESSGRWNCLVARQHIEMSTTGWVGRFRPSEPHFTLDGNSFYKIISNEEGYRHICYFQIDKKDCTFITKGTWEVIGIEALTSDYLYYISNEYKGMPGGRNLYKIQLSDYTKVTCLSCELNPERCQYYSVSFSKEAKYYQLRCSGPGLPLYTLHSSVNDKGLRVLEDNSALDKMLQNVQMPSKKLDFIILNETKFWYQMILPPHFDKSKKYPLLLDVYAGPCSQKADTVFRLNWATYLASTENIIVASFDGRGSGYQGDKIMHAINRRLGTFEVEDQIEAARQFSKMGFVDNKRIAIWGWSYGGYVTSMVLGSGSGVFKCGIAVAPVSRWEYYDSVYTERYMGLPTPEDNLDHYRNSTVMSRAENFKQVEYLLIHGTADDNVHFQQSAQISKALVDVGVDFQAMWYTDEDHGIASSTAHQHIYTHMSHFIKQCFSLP

Activity [1]: 22 nM
Structure (SMILES): CC(C)=CCn1c(OCCCN)nc2c1c(=O)n(CC(=O)c1ccccc1)c(=O)n2C

pIC50 (Dipeptidyl peptidase 4 [2]): 7.80
pIC50 (Dipeptidyl peptidase 4 [3]): 7.77
Activity [1]: 2.6 nM
Structure (SMILES): CC(C)=CCn1c(OC[C@@H]2CCCN2)nc2c1c(=O)n(CC(=O)c1ccccc1)c(=O)n2C

Activity [1]: 4 nM
Structure (SMILES): CC(C)=CCn1c(N2CCC[C@H](N)C2)nc2c1c(=O)n(CC(=O)c1ccccc1)c(=O)n2C

Activity [1]: 430 nM
Structure (SMILES): CC(C)=CCn1c(OC[C@@H](N)Cc2ccccc2)nc2c1c(=O)n(C)c(=O)n2C

pIC50 (Dipeptidyl peptidase 4 [2]): 6.15
pIC50 (Dipeptidyl peptidase 4 [3]): 5.60
Activity [1]: 580 nM
Structure (SMILES): CC(C)=CCn1c(OC[C@H]2CCCN2)nc2c1c(=O)n(CC(=O)c1ccccc1)c(=O)n2C

Activity [1]: 1600 nM
Structure (SMILES): CC(C)=CCn1c(OC[C@@H]2CCCN2)nc2c1c(=O)n(C)c(=O)n2C

pIC50 (Dipeptidyl peptidase 4 [2]): 6.56
pIC50 (Dipeptidyl peptidase 4 [3]): 5.96
Activity [1]: 275 nM
pIC50 (Dipeptidyl peptidase 4 [4]): < 6.00
Structure (SMILES): CC(C)=CCn1c(OC2CCNCC2)nc2c1c(=O)n(CC(=O)c1ccccc1)c(=O)n2C

Continued, compound first:

Structure (SMILES): CC(C)=CCn1c(OC2CCNCC2)nc2c1c(=O)n(C)c(=O)n2C
Activity [1]: > 5000 nM

Structure (SMILES): CC(C)=CCn1c(O[C@@H]2CCNC2)nc2c1c(=O)n(C)c(=O)n2C
Activity [1]: > 7000 nM

Structure (SMILES): CC(C)=CCn1c(N2CC3CCCNC3C2)nc2c1c(=O)n(CC(=O)c1ccccc1)c(=O)n2C (configuration not stated)
Activity [1]: 269 nM

Structure (SMILES): CC(C)=CCn1c(N2CCNCC2)nc2c1c(=O)n(C)c(=O)n2C
Activity [1]: 173 nM

Structure (SMILES): CC(C)=CCn1c(N2CCC[C@H](N)C2)nc2c1c(=O)n(C)c(=O)n2C
Activity [1]: 6 nM

Structure (SMILES): CC(C)=CCn1c(OCC(C)(C)CN)nc2c1c(=O)n(CC(=O)c1ccccc1)c(=O)n2C
pIC50 (Dipeptidyl peptidase 4 [2]): 8.19
pIC50 (Dipeptidyl peptidase 4 [3]): 8.05
Activity [1]: 6 nM

Structure (SMILES): CC(C)=CCn1c(N2CC3CCNC3C2)nc2c1c(=O)n(C)c(=O)n2C (configuration not stated)
Activity [1]: 6000 nM

Structure (SMILES): CC(C)=CCn1c(N2CCC3CNCC32)nc2c1c(=O)n(C)c(=O)n2C (configuration not stated)
pIC50 (Dipeptidyl peptidase 4 [2]): 6.89
pIC50 (Dipeptidyl peptidase 4 [3]): 6.68
Activity [1]: 132 nM

Structure (SMILES): CC(C)=CCn1c(OC[C@H](C)N)nc2c1c(=O)n(C)c(=O)n2C
Activity [1]: 780 nM

Structure (SMILES): CC(C)=CCn1c(N2CCC[C@@H](N)C2)nc2c1c(=O)n(C)c(=O)n2C
Activity [1]: 11 nM

Structure (SMILES): CC(C)=CCn1c(OCC(C)(C)CN)nc2c1c(=O)n(C)c(=O)n2C
Activity [1]: 260 nM

Structure (SMILES): CC(C)=CCn1c(N2CCC[C@@H](N)C2)nc2c1c(=O)n(CC(=O)c1ccccc1)c(=O)n2C
pIC50 (Dipeptidyl peptidase 4 [2]): 9.14
pIC50 (Dipeptidyl peptidase 4 [3]): > 7.40
Activity [1]: 0.7 nM

Structure (SMILES): CC(C)=CCn1c(O[C@H]2CCNC2)nc2c1c(=O)n(C)c(=O)n2C
Activity [1]: > 8000 nM

Structure (SMILES): CC(C)=CCn1c(OC[C@H]2CCCN2)nc2c1c(=O)n(C)c(=O)n2C
Activity [1]: > 7000 nM

Structure (SMILES): CC(C)=CCn1c(N2CC3CCCNC3C2)nc2c1c(=O)n(C)c(=O)n2C (configuration not stated)
Activity [1]: > 24500 nM

Structure (SMILES): CC(C)=CCn1c(O[C@@H](C)CN)nc2c1c(=O)n(CC(=O)c1ccccc1)c(=O)n2C
Activity [1]: 420 nM

Structure (SMILES): CC(C)=CCn1c(N2CCNCC2)nc2c1c(=O)n(CC(=O)c1ccccc1)c(=O)n2C
Activity [1]: 11 nM
